Here are results for 21 molecules from PubChem BioAssay AID651549 (Sanford-Burnham Center for Chemical Genomics, 2012).

The assay can be described thus: GAPDH and PEG-3 promoter luciferase suppression – cell-based, luminescence, set 2, counter-screen for PEG-3 promoter inhibitor project, dose response (AID 651549). The settings on record: HeLa PEG-Prom-luciferase or GAPDH-reporter, 6/24 h. (A counterscreen serves to expose hits that act by an unwanted route or on another target.)

Active and inactive are the calls of the source.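 Rule for the calls: active = compounds blocking the PEG3 reporter with IC50 up to 10 µM at either incubation, yet sparing the GAPDH control reporter; inactive = the rest.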

In general, IC50 refers to the midpoint of a concentration-inhibition curve. As to `Cc1cccc(-n2cc(-c3ccccc3)c3c(N4CCOCC4)ncnc32)c1`, the IC50 (GAPDH, run 1, 6 h) is > 99 µM (inactive) and the IC50 (PEG-3, run 1, 6 h) was > 99 µM (inactive). Also, the IC50 entry by setting is: (GAPDH, run 1, 24 h) “inactive”; (PEG-3, run 1, 24 h) “inactive”.

Turning to `Cc1cccc(NC(=O)c2oc3ccc(S(=O)(=O)N4CCOCC4)cc3c2C)c1C`, the IC50 result (GAPDH, run 1, 6 h) was “inactive”. For the same molecule, the IC50 by setting is: (GAPDH, run 1, 24 h) 6.39 µM; (PEG-3, run 1, 6 h) > 99 µM (inactive); (PEG-3, run 1, 24 h) 8.47 µM.

Regarding `CCSc1nc2ccccc2n1C(=O)/C=C\c1ccc(OC)c(OC)c1`, the IC50 (GAPDH, run 1, 6 h) is 6.8 µM; the half-maximal inhibitory concentration (IC50) (GAPDH, run 1, 24 h) is 5.39 µM; the IC50 (PEG-3, run 1, 6 h) is 6.76 µM; the IC50 (PEG-3, run 1, 24 h) is 6.91 µM.

Consider `CCCn1nc(C(=O)Nc2nc(-c3ccccn3)cs2)c2ccccc2c1=O`, for which the IC50 entry runs as follows: (GAPDH, run 1, 6 h) “inactive”; (GAPDH, run 1, 24 h) “inactive”. Also, the IC50 runs as follows: (PEG-3, run 1, 6 h) > 99 µM (inactive); (PEG-3, run 1, 24 h) > 99 µM (inactive).

Regarding `NS(=O)(=O)c1ccc(CCNc2nn3c(-c4ccc(F)c(Cl)c4)cnc3s2)cc1`, the IC50 entry is, setting by setting: (GAPDH, run 1, 6 h) “inactive”; (PEG-3, run 1, 6 h) “inactive”. For the same molecule, the IC50 is, setting by setting: (GAPDH, run 1, 24 h) 2.38 µM; (PEG-3, run 1, 24 h) 2.99 µM.

`Cc1cc(C)cc(NS(=O)(=O)c2ccc3c(c2)c(=O)n(C)c(=O)n3C)c1`: the IC50 entry (GAPDH, run 1, 6 h) was “inactive”. In addition, the IC50 is 1.85 µM (GAPDH, run 1, 24 h); > 99 µM (inactive) (PEG-3, run 1, 6 h); 4.62 µM (PEG-3, run 1, 24 h).

For the molecule `O=C(Nc1cccc(-c2ccc(N3CCCCC3)nn2)c1)C(F)(F)F`, the IC50 is 3.5 µM (GAPDH, run 1, 6 h); 5.36 µM (PEG-3, run 1, 6 h); 8.67 µM (PEG-3, run 1, 24 h). Besides, under “GAPDH, run 1, 24 h”, the IC50 entry is “inactive”.

As to `CC(=O)OC1(C)CC(C)C(=O)C(C(O)CC2CC(=O)NC(=O)C2)C1` (centres undefined), the IC50 runs as follows: (GAPDH, run 1, 6 h) under 1 µM; (GAPDH, run 1, 24 h) under 1 µM; (PEG-3, run 1, 6 h) under 1 µM; (PEG-3, run 1, 24 h) 0.353 µM.

With `COc1ccc(-n2cc(-c3ccccc3)c3c(N4CCOCC4)ncnc32)cc1`, the IC50 result (GAPDH, run 1, 6 h) is “inactive”; the IC50 result (PEG-3, run 1, 6 h) was “inactive”; the IC50 result (PEG-3, run 1, 24 h) was “inactive”. Also, for the setting “GAPDH, run 1, 24 h”, the IC50 is 2.98 µM.

`CC(C)(C)c1ccc(Cn2c(=O)cnc3ccccc32)cc1`: the IC50 was 6 µM (GAPDH, run 1, 6 h); 6.64 µM (GAPDH, run 1, 24 h); 3.47 µM (PEG-3, run 1, 6 h). In addition, the IC50 entry (PEG-3, run 1, 24 h) was “inactive”.

With `COc1ccc2[nH]c(=O)c(CN(Cc3cccnc3)S(=O)(=O)c3ccccc3F)cc2c1`, the IC50 result runs as follows: (GAPDH, run 1, 6 h) “inactive”; (PEG-3, run 1, 24 h) “inactive”. In addition, the IC50 was 5.38 µM (GAPDH, run 1, 24 h) and > 99 µM (inactive) (PEG-3, run 1, 6 h).

Turning to `CC1CCN(c2nc3ccc(C(=O)O)cc3s2)CC1`, the IC50 by setting is: (GAPDH, run 1, 6 h) 1.93 µM; (GAPDH, run 1, 24 h) 2.14 µM; (PEG-3, run 1, 6 h) 1.01 µM; (PEG-3, run 1, 24 h) 1.51 µM.

For the molecule `Cc1c(/C(O)=C2/C(=O)C(=O)N(Cc3cccnc3)C2c2ccccn2)cnn1-c1ccccc1` (centres undefined), the IC50 (GAPDH, run 1, 6 h) was 1.01 µM; the IC50 (GAPDH, run 1, 24 h) is 1.92 µM; the IC50 (PEG-3, run 1, 6 h) was 1.58 µM; the IC50 (PEG-3, run 1, 24 h) is 5.27 µM.

As to `CC(C)(C)c1ccc(Oc2ccc(N)cc2)cc1`, the IC50 is 6.12 µM (GAPDH, run 1, 6 h); 5.35 µM (GAPDH, run 1, 24 h); 6.09 µM (PEG-3, run 1, 6 h); 6.51 µM (PEG-3, run 1, 24 h).

Take `Cc1ccc(S(=O)(=O)NC(CC(C)C)C(=O)NCC(c2ccco2)N2CCCCC2)cc1` (centres undefined): the IC50 result (GAPDH, run 1, 6 h) is “inactive”; the IC50 result (GAPDH, run 1, 24 h) was “inactive”; the IC50 entry (PEG-3, run 1, 6 h) was “inactive”; the IC50 result (PEG-3, run 1, 24 h) was “inactive”.

For the molecule `Cc1ccc(-c2cn3nc(C)c(C)nc3n2)cc1`, the IC50 result is, setting by setting: (GAPDH, run 1, 6 h) “inactive”; (PEG-3, run 1, 6 h) “inactive”. The IC50 is, setting by setting: (GAPDH, run 1, 24 h) > 99 µM (inactive); (PEG-3, run 1, 24 h) > 99 µM (inactive).

In the case of `CCCCCCCn1c(=N)n(CC(=O)c2ccco2)c2ccccc21`, the IC50 entry was “inactive” (GAPDH, run 1, 6 h); “inactive” (GAPDH, run 1, 24 h); “inactive” (PEG-3, run 1, 6 h); “inactive” (PEG-3, run 1, 24 h).

As to `O=C(c1ccco1)N1CCN(C(c2ccccc2Cl)c2nnnn2Cc2cccs2)CC1` (centres undefined), the IC50 entry (GAPDH, run 1, 6 h) is “inactive”; the IC50 entry (GAPDH, run 1, 24 h) is “inactive”; the IC50 entry (PEG-3, run 1, 24 h) is “inactive”. In addition, the IC50 (PEG-3, run 1, 6 h) was > 99 µM (inactive).

Consider `Cc1nc2c(-c3ccc(Cl)cc3)c(C)[nH]n2c(=O)c1Cc1ccccc1`, for which, under “GAPDH, run 1, 6 h”, the IC50 result was “inactive”. The IC50 (GAPDH, run 1, 24 h) is 1.74 µM; the IC50 (PEG-3, run 1, 6 h) was > 99 µM (inactive); the IC50 (PEG-3, run 1, 24 h) was 2.21 µM.

For the molecule `CS(=O)(=O)c1ccc(-c2cn3cc(C(=O)O)ccc3n2)cc1`, the IC50 result was “inactive” (GAPDH, run 1, 6 h); “inactive” (PEG-3, run 1, 6 h); “inactive” (PEG-3, run 1, 24 h). Moreover, the IC50 (GAPDH, run 1, 24 h) was 3.4 µM.

For the molecule `Cc1ccc2nc(NC(=O)CSCC(=O)OCC(=O)c3ccccc3)sc2c1`, the IC50 result is, setting by setting: (GAPDH, run 1, 6 h) “inactive”; (PEG-3, run 1, 6 h) “inactive”; (PEG-3, run 1, 24 h) “inactive”. For the same molecule, the IC50 (GAPDH, run 1, 24 h) was 5.63 µM.
